Consider 53 compounds from patent publication US20250304571A1, “BIOLOGICALLY ACTIVE COMPOUNDS AND METHODS THEREOF” (Suzhou Keen Therapeutics Co., Ltd., priority 2022, published 2025).

Holding throughout (format): cell-based
For experiment [1], the system named is KP4 (pancreatic ductal adenocarcinoma) cells. The experiment in a line: Cell viability (CellTiter Glo) assay, inhibition of KP4 cell proliferation. As to conditions: Homo sapiens, read-out: IC50, inhibition of KP4 cell proliferation.
In experiment [2] the test system is 786-O (renal cell carcinoma) cells. Nature of the experiment: Cell viability (CellTiter Glo) assay, inhibition of 786-O cell proliferation. As to conditions: Homo sapiens, read-out: IC50, inhibition of 786-O cell proliferation. (In ATP-based viability assays light output follows the ATP content of the culture.)
The subject of a further experiment is 786-O cells. Nature of the experiment: Anti-proliferation activity in 786-O cells in the presence of a ferroptosis inhibitor (Ferrostatin-1 or Liproxstatin-1). As to conditions: Homo sapiens, 786-0, 72 h, no ferroptosis inhibitor, read-out: IC50, No Ferroptosis Inhibitor (Table 5). The procedure:
In one assessment, cells (KP4, 786-0 and HT-1080) were seeded (700 cells/well, 1000 cells/well or 3000 cells/well) in 384-well or 96-well plates and incubated at 37° C./5% CO2 for 22-24 hours. A series of 8 different concentrations of compound stocks were created by 5-fold serial dilution in DMSO. These compounds were further diluted in culture media and were then added to cells (final concentrations: 100 μM, 20 μM, 4 μM, 0.8 μM, 0.16 μM, […].). After 72 hours of incubation, 30 μL of CellTiter Glo reagent (Promega) was added to each well and luminescence was measured after 10 minutes using SpectraMax M5/M5e (Molecular Devices). Luminescence from cells treated with DMSO alone was set as background and % of inhibition was calculated as follows: […]
Anti-proliferation activity of various compounds was also tested in the presence of an ferroptosis inhibitor, Ferrostatin-1 (2 μM) or Liproxstatin-1 (2 μM). Certain results are provided in Table 4 and Table 5 as examples. “A” indicates an IC50≤100 nM; “B” indicates an IC50 of >100 nM and ≤500 nM; “C” indicates an IC50>500 nM and ≤5 μM; and “D” indicates an IC50>5 μM.

[3] abbreviates: KP-4, KP4 cells, 72 hours, CellTiter Glo.
Setting [4] is: 786-0, 786-O cells, 72 hours, CellTiter Glo.

Read-outs that look alike come from different tables or passages of the source.

On to `CCCC[C@H]1Cc2cc(OC)ccc2[C@H](c2ccc(F)cc2)N1C(=O)COC(=N)N(C)C` [Compound A1], for which, in experiment [1] (setting [3]), the IC50 fell in the range of 100 to 500 nM. Turning to `CCCC[C@H]1Cc2cc(OC)ccc2[C@H](c2ccc(F)cc2)N1C(=O)COC(=N)N1CCN(C)C(=O)C1` [Compound A2], the IC50 was greater than 5000 nM in experiment [1] (setting [3]) and 500 to 5000 nM in experiment [2] (setting [4]). In the case of `CN(C)C(=N)OCc1ncc2ccn(-c3ccc(Oc4ccccc4)cc3)c2n1` [Compound D1], the IC50 in experiment [1] (setting [3]) is 100 to 500 nM. Regarding `N=C(OCc1nc(Nc2ccc(Oc3ccccc3)cc2)c2cc[nH]c2n1)N1CCOCC1` [Compound D4], the IC50 fell in the range of 500 to 5000 nM in experiment [1] (setting [3]) and 100 to 500 nM in experiment [2] (setting [4]). As for `N=C(OCc1nc(Nc2ccc(Oc3ccccc3)cc2)c2cc[nH]c2n1)N1CCCCC1` [Compound D5], the IC50 in experiment [1] (setting [3]) and in experiment [2] (setting [4]) was 100 to 500 nM throughout. As to `CN1CCN(C(=N)OCc2nc(Nc3ccc(Oc4ccccc4)cc3)c3cc[nH]c3n2)CC1=O` [Compound D7], the IC50 in experiment [1] (setting [3]) and in experiment [2] (setting [4]) was 500 to 5000 nM throughout. In the case of `N=C(OCc1nc(Nc2ccc(Oc3ccccc3)cc2)c2cc[nH]c2n1)N1CCCC(F)(F)C1` [Compound D8], the IC50 fell in the range of 500 to 5000 nM in experiment [1] (setting [3]) and 100 to 500 nM in experiment [2] (setting [4]).

As to `CN(C)C(=N)OCc1nc(Nc2ccc(Oc3ccccc3)cc2)c2cn[nH]c2n1` [Compound D10], in experiment [1] (setting [3]), the IC50 was 500 to 5000 nM. In the case of `CN(C)C(=N)OCc1nc(N)c2c(n1)N(c1ccc(Oc3ccccc3)cc1)CC2(C)C` [Compound E1], the IC50 with 786-O cells was less than 100 nM; in experiment [2] (786-0, 72 h), less than 100 nM. On to `C[C@@H]1CN(c2ccc(N3C(=O)C4(CCCC4)c4c(N)nc(COC(=N)N5CCC[C@@H]5C(F)(F)F)nc43)cc2F)C[C@H](C)O1` [Compound E214], for which, in experiment [2] (setting [4]), the IC50 is less than 100 nM. On the same count and under the same terms, with `CNc1nc(COC(=N)N2CCC[C@@H]2C(F)(F)F)nc2c1C1(CCCC1)C(=O)N2c1cnc(C2CC2)nc1` [Compound E215] the figure was 100 to 500 nM; with `CNc1nc(COC(=N)N2CCOCC2C(F)(F)F)nc2c1C(C)(C)C(=O)N2c1cnc(N2CCC(F)(F)C2)nc1` (stereo not shown) [Compound E216], 100 to 500 nM; with `CNc1nc(COC(=N)N2CCC[C@@H]2C(F)(F)F)nc2c1C(C)(C)C(=O)N2c1cnc(N2C[C@@H](C)O[C@@H](C)C2)nc1` [Compound E217], less than 100 nM.

Regarding `CNc1nc(COC(=N)N2CCOCC2C(F)(F)F)nc2c1C(C)(C)C(=O)N2c1cnc(N2C[C@@H](C)O[C@@H](C)C2)nc1` (stereo partly shown) [Compound E218], the IC50 in experiment [2] (setting [4]) lay within 500 to 5000 nM. For the compound `C[C@@H]1CN(c2ncc(N3C(=O)C(C)(C)c4c(NC5CCC5)nc(COC(=N)N5CCOCC5C(F)(F)F)nc43)cn2)C[C@H](C)O1` (stereo partly shown) [Compound E219], the IC50 in experiment [2] (setting [4]) was 100 to 500 nM. Consider `CC1(C)C(=O)N(c2cnc(N3CCC(F)(F)C3)nc2)c2nc(COC(=N)N3CCOCC3C(F)(F)F)nc(NC3CCC3)c21` (stereo not shown) [Compound E220], for which the IC50 in experiment [2] (setting [4]) fell in the range of 100 to 500 nM. Regarding `CC(C)Oc1ccc(Nc2nc(N)nc(COC(=N)N(C)C)n2)cc1` [Compound F1], the IC50 in experiment [1] (setting [3]) was 500 to 5000 nM. Take `Cn1c(OCc2nc(N)nc(Nc3ccc(Oc4ccccc4)cc3)n2)nc(Br)c1Br` [Compound F2]: the IC50 in experiment [2] (setting [4]) is greater than 5000 nM.

Consider `N=C(OCc1nc(N)nc(Nc2ccc(Oc3ccccc3)cc2)n1)N1CCCCC1` [Compound F4, (4-amino-6-((4-phenoxyphenyl)amino)-1,3,5-triazin-2-yl)methyl piperidine-1-carbimidate], for which, in experiment [1] (setting [3]), the IC50 was less than 100 nM. Turning to `CN(C)C(=N)OCc1nc(N)nc(Nc2ccc3ccccc3c2)n1` [Compound F5], the IC50 in experiment [1] (setting [3]) and in experiment [2] (setting [4]) was 100 to 500 nM each time.

For `CN1CCN(C(=N)OCc2nc(N)nc(Nc3ccc(Oc4ccccc4)cc3)n2)CC1` [Compound F7], the IC50 in experiment [1] (setting [3]) and in experiment [2] (setting [4]) was 100 to 500 nM throughout. Consider `CC(C)N(CC(F)(F)F)C(=N)OCc1nc(N)nc(Nc2ccc(Oc3ccccc3)cc2)n1` [Compound F8], for which the IC50 in experiment [2] (786-0, 72 h) was less than 100 nM. With `[2H]C([2H])(OC(=N)N1CCC(F)(F)CC1)c1nc(N)nc(Nc2ccc(Oc3ccccc3)cc2)n1` [Compound F10], in experiment [2] (setting [4]), the IC50 is less than 100 nM.

As to `N=C(OCc1nc(N)nc(Nc2ccc(Oc3ccccc3)cc2)n1)N(C1CCCCC1)C1CC1` [Compound F14], the IC50 in experiment [2] (786-0, 72 h) was less than 100 nM.

In the case of `CC1(NC(=N)OCc2nc(N)nc(Nc3ccc(Oc4ccccc4)cc3)n2)CCCCC1` [Compound F15], in experiment [2] (setting [4]), the IC50 lay within 100 to 500 nM. Consider `CCN(CC)C(=N)OCc1nc(N)nc(Nc2ccc(Oc3ccccc3)cc2)n1` [Compound F17], for which the IC50 in experiment [2] (setting [4]) is 100 to 500 nM. On to `Nc1nc(CO/C(=N\C2CCCCC2)NC2CCCCC2)nc(Nc2ccc(Oc3ccccc3)cc2)n1` [Compound F23], for which the IC50 in experiment [1] (KP-4, 72 h) was 500 to 5000 nM; in experiment [2] (786-0, 72 h), 100 to 500 nM. Regarding `CC(C)/N=C(/NC(C)C)OCc1nc(N)nc(Nc2ccc(Oc3ccccc3)cc2)n1` [Compound F24], the IC50 in experiment [1] (setting [3]) was 500 to 5000 nM; in experiment [2] (setting [4]) it was 100 to 500 nM.

`N=C(N)OCc1nc(N)nc(Nc2ccc(Oc3ccccc3)cc2)n1` [Compound F26]: the IC50 in experiment [1] (KP-4, 72 h) was greater than 5000 nM.

Take `N=C(OCc1nc(N)nc(Nc2ccc(Oc3ccccc3)cc2)n1)N1CCS(=O)(=O)CC1` [Compound F27]: the IC50 in experiment [1] (setting [3]) lay within 100 to 500 nM. Turning to `CC1(NC(=N)OCc2nc(N)nc(Nc3ccc(Oc4ccccc4)cc3)n2)CC1` [Compound F28], the IC50 in experiment [2] (setting [4]) is 100 to 500 nM. Turning to `CN(C(=N)OCc1nc(N)nc(Nc2ccc(Oc3ccccc3)cc2)n1)c1ccccc1` [Compound F29], the IC50 in experiment [2] (786-0, 72 h) is less than 100 nM. With `C[C@@H]1CN(C(=N)OCc2nc(N)nc(Nc3ccc(Oc4ccccc4)cc3)n2)C[C@H](C)N1C(=O)OC(C)(C)C` [Compound F32], the IC50 in experiment [1] (setting [3]) is less than 100 nM. As to `CN1CCN(C(=N)OCc2nc(N)nc(Nc3ccc(Oc4ccccc4)cc3)n2)CC1=O` [Compound F33], the IC50 in experiment [1] (setting [3]) is 100 to 500 nM.

For the compound `CN(C)C(=N)OCc1nccc(Nc2ccc(Oc3ccccc3)cc2)n1` [Compound F35], the IC50 in experiment [1] (setting [3]) fell in the range of 100 to 500 nM; in experiment [2] (setting [4]), 500 to 5000 nM. Turning to `CN(C)C(=N)OCc1nc(N)cc(Nc2ccc(Oc3ccccc3)cc2)n1` [Compound F36], the IC50 in experiment [1] (KP-4, 72 h) is 500 to 5000 nM. As for `CN(C)C(=N)OCc1nccc(N2CCCCC2c2ccc(Oc3ccccc3)cc2)n1` (stereo not shown) [Compound F38], in experiment [1] (setting [3]), the IC50 is greater than 5000 nM. `CCN(CC(F)(F)F)C(=N)OCc1cc(Nc2ccc(Oc3ccccc3)cc2)ncn1` [Compound F39]: the IC50 in experiment [2] (setting [4]) was 500 to 5000 nM.

Consider `CCN(CC(F)(F)F)C(=N)OCc1nccc(Nc2ccc(Oc3ccccc3)cc2)n1` [Compound F40], for which the IC50 in experiment [2] (setting [4]) is 100 to 500 nM.

As for `CCN(C(=N)OCc1nc(N)nc(Nc2ccc(Oc3ccccc3)cc2)n1)c1ccncc1` [Compound F41], in experiment [2] (setting [4]), the IC50 was less than 100 nM. As to `CCN(C(=N)OCc1nc(N)nc(Nc2ccc(Oc3ccccc3)cc2)n1)c1ccccn1` [Compound F42], the IC50 in experiment [2] (setting [4]) was less than 100 nM. With `N=C(OCc1nc(N)nc(Nc2ccc(Oc3ccccc3)cc2)n1)N1CCCCO1` [Compound F43], the IC50 in experiment [2] (786-0, 72 h) lay within 100 to 500 nM. With `N=C(OCc1nc(N)nc(Nc2ccc(Oc3ccccc3)cc2)n1)N1CCCO1` [Compound F44], in experiment [2] (setting [4]), the IC50 fell in the range of 100 to 500 nM.

As to `CCN(CC(F)(F)F)C(=N)OCc1nc(N)nc(Nc2ccc(Oc3ccccc3)cc2)n1` [Compound F45], the IC50 in experiment [2] (setting [4]) was less than 100 nM.

In the case of `C#CCOc1cccc(Oc2ccc(Nc3nc(N)nc(COC(=N)N4CCCCC4C(F)(F)F)n3)cc2)c1` (stereo not shown) [Compound F46], the IC50 in experiment [2] (setting [4]) was less than 100 nM.

In the case of `C#CCOc1cccc(Oc2ccc(Nc3nc(N)nc(COC(=N)N(CC)c4ccccn4)n3)cc2)c1` [Compound F47], in experiment [2] (setting [4]), the IC50 is less than 100 nM.

As for `CCN(CC(F)(F)F)C(=N)OCc1cc(Nc2ccc(Oc3ccccc3)cc2)cnn1` [Compound F48], the IC50 in experiment [2] (setting [4]) is 500 to 5000 nM. For the compound `CCN(CC(F)(F)F)C(=N)OCc1nccc(Nc2ccc(N3CCOCC3)nc2)n1` [Compound F49], the IC50 in experiment [2] (setting [4]) lay within 500 to 5000 nM.

As for `CCN(CC(F)(F)F)C(=N)OCc1ncc(C#N)c(Nc2ccc(Oc3ccccc3)cc2)n1` [Compound F50], the IC50 in experiment [2] (setting [4]) is 500 to 5000 nM. On to `N=C(OCc1nc(N)nc(Nc2ccc(Oc3ccccc3)cc2)n1)N(CC(F)(F)F)C1CCOCC1` [Compound F51], for which the IC50 in experiment [2] (setting [4]) was less than 100 nM. Consider `Nc1nc(COc2nc(=O)[nH]c(=O)[nH]2)nc(Nc2ccc(Oc3ccccc3)cc2)n1` [Compound F53], for which the IC50 in experiment [2] (setting [4]) was greater than 5000 nM. `CCN(CC(F)(F)F)C(=N)OCc1ncc(C#N)c(Nc2ccc(Oc3ccccc3)cc2)c1F` [Compound F54]: the IC50 in experiment [2] (setting [4]) was in the range of 500 to 5000 nM. As to `N=C(OCc1nc(N)nc(Nc2ccc(N3CCOCC3)cc2)n1)N1CCC[C@@H]1C(F)(F)F` [Compound F55, (4-amino-6-((4-morpholinophenyl)amino)-1,3,5-triazin-2-yl) methyl(R)-2-(trifluoromethyl) pyrrolidine-1-carbimidate], in experiment [2] (setting [4]), the IC50 was 100 to 500 nM.
